# In patent US9932338B2, “Compounds having muscarinic receptor antagonist and BETA2 adrenergic receptor agonist activity” (CHIESI FARMACEUTICI S.P.A., priority 2015, dated 2018):
# Where two headings read alike, the source gives them in different places.
# Key:
# [1] = molecular target: T1, Human M3 receptor (Homo sapiens, UniProt P20309); experiment: M3 receptor radioligand binding assay; details: human M3 receptor membranes, [N-methyl-3H] scopolamine methyl chloride, Ki from IC50 by Cheng and Prusoff
# T1 construct: purchased Perkin Elmer
# T1 sequence (P20309 whole entry): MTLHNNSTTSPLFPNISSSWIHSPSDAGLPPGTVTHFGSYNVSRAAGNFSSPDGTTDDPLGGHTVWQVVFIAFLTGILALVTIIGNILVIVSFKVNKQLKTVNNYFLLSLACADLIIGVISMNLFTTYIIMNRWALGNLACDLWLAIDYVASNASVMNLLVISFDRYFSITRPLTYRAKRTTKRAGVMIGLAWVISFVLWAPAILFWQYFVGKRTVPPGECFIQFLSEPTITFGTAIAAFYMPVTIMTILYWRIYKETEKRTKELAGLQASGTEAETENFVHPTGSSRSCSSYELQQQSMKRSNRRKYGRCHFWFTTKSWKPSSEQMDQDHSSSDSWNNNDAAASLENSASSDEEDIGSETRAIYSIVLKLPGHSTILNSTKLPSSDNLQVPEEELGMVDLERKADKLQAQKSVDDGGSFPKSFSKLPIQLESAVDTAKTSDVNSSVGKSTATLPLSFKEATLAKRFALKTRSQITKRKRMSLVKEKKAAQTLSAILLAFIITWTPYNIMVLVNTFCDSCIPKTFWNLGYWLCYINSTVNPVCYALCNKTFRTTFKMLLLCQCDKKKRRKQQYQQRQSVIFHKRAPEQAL
# Method: Example. M3 Receptor Radioligand Binding Assay
# The assay was carried out in 96-well polypropylene plates in a volume of 250 ul. […] The final assay concentration of DMSO was 0.5% (v/v). The plates were sealed and incubated for 2 hours at room temperature on an orbital shaker (slow speed). Membranes were harvested onto 96-well unifilter GF/C filter plates pre-treated with 0.5% polyethyleneimine (v/v), using a filter manifold, washed four times with 200 μl of assay buffer. The plates were dried before addition of 50 μl of microscint-0, sealed then read in a Trilux Microbeta scintillation counter. IC50 values are determined from competition curves using a non-linear curve fitting program. Ki values were calculated from IC50 values by the Cheng and Prusoff equation.
# [2] = molecular target: T2, Human β2 adrenoceptor (Homo sapiens, UniProt P07550); experiment: β2 adrenoceptor radioligand binding assay; details: human β2 adrenoceptor membranes, 125-I cyanopindolol, Ki from IC50 by Cheng and Prusoff
# T2 construct: purchased Perkin Elmer
# T2 sequence (P07550 whole entry): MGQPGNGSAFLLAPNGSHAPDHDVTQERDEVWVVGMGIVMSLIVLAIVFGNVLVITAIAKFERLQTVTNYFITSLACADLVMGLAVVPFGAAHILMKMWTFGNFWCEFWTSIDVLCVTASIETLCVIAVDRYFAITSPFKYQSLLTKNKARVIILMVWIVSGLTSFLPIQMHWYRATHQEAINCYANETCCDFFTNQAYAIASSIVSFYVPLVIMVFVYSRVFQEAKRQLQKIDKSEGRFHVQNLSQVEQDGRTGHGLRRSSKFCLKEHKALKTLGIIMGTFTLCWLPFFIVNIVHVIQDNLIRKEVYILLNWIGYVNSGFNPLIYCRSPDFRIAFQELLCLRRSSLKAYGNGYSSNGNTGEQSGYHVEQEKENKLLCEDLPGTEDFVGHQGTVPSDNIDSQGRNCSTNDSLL
# Method: Example. β2 Adrenoceptor Radioligand Binding Assay
# Human β2 adrenoceptor membranes (7.5 ug/well) from Perkin Elmer were incubated with 0.3 nM 125-I Cyanopindolol with or without test compounds, or a saturating concentration of s-propranolol (2 μM) for the determination of non-specific binding. The assay was carried out in 96-well polypropylene plates in a volume of 200 ul. The assay buffer used was 25 mM HEPES, 0.5% BSA (w/v), 1 mM EDTA, 0.02% ascorbic acid (v/v), (pH 7.4). The final assay concentration of DMSO was 0.5% (v/v). The plates were sealed and incubated for 1 hour at room temperature on an orbital shaker (slow speed). Membranes were harvested onto 96-well unifilter GF/C filter plates pre-treated with 0.5% polyethyleneimine (v/v), using a filter manifold, washed six times with 200 μl of wash buffer containing 10 mM HEPES and 500 mM NaCl. The plates were dried before addition of 50 μl of microscint-0, sealed then read in a Trilux Microbeta scintillation counter. IC50 values are determined from competition curves using a non-linear curve fitting program. Ki values were calculated from IC50 values by the Cheng and Prusoff equation.
# [3] = read-out: M3 binding affinity (Ki class)
# [4] = read-out: B2 binding affinity (Ki class)
SMILES,Ki ([1]; M3 binding affinity (Ki class)) [nM],Ki ([2]; B2 binding affinity (Ki class)) [nM],"Ki [1, 3] [nM]","Ki [2, 4] [nM]"
"O=C(NC1(C(=O)O[C@H]2CN3CCC2CC3)CCc2ccccc21)c1cccc(OCCCCCNC[C@H](O)c2ccc(O)c3[nH]c(=O)ccc23)c1 (stereo partly drawn) [Compound 2, (R)-quinuclidin-3-yl 1-(3-((5-(((R)-2-hydroxy-2-(8-hydroxy-2-oxo-1,2-dihydroquinolin-5-yl)ethyl)amino)pentyl)oxy)benzamido)-2,3-dihydro-1H-indene-1-carboxylate]",< 1,< 1,–,–
"O=C(NCCCCNC[C@H](O)c1ccc(O)c2[nH]c(=O)ccc12)c1cccc(CNC2(C(=O)O[C@H]3CN4CCC3CC4)CCc3ccccc32)c1 (stereo partly drawn) [Compound 1, (R)-quinuclidin-3-yl 1-((3-((4-(((R)-2-hydroxy-2-(8-hydroxy-2-oxo-1,2-dihydroquinolin-5-yl)ethyl)amino)butyl)carbamoyl)benzyl)amino)-2,3-dihydro-1H-indene-1-carboxylate]",–,–,< 1,< 1
"O=C(NC1(C(=O)OCC2CCN(Cc3ccccc3)CC2)CCc2ccccc21)c1cccc(OCCCCCCNC[C@H](O)c2ccc(O)c3[nH]c(=O)ccc23)c1 (stereo partly drawn) [Compound 9, (1-benzylpiperidin-4-yl)methyl 1-(3-((6-(((R)-2-hydroxy-2-(8-hydroxy-2-oxo-1,2-dihydroquinolin-5-yl)ethyl)amino)hexyl)oxy)benzamido)-2,3-dihydro-1H-indene-1-carboxylate]",–,–,< 1,> 10
"O=C(NCCCCNC[C@H](O)c1ccc(O)c2[nH]c(=O)ccc12)c1ccc(CNC2(C(=O)O[C@H]3CN4CCC3CC4)Cc3ccccc3C2)s1 [Compound 14, (R)-quinuclidin-3-yl 2-(((5-((4-(((R)-2-hydroxy-2-(8-hydroxy-2-oxo-1,2-dihydroquinolin-5-yl)ethyl)amino)butyl)carbamoyl)thiophen-2-yl)methyl)amino)-2,3-dihydro-1H-indene-2-carboxylate]",–,–,< 1,1 to 10
"O=C(NCCCCNC[C@H](O)c1ccc(O)c2[nH]c(=O)ccc12)c1ccc(CNC2(C(=O)OCC3CCN(Cc4ccccc4)CC3)CCc3ccccc32)s1 (single isomer, unassigned; stereoisomer 2) [Compound 23]",–,–,< 1,1 to 10
"O=C(NCCCCNC[C@H](O)c1ccc(O)c2[nH]c(=O)ccc12)c1cccc(C(=O)NC2(C(=O)O[C@H]3CN4CCC3CC4)CCc3ccccc32)c1 (stereo partly drawn) [Compound 8, (R)-quinuclidin-3-yl 1-(3-((4-(((R)-2-hydroxy-2-(8-hydroxy-2-oxo-1,2-dihydroquinolin-5-yl)ethyl)amino)butyl)carbamoyl)benzamido)-2,3-dihydro-1H-indene-1-carboxylate]",–,–,1 to 10,> 10
"O=C(NCCCCNC[C@H](O)c1ccc(O)c2[nH]c(=O)ccc12)c1ccc(CNC2(C(=O)O[C@@H]3CCN(Cc4ccccc4)C3)CCc3ccccc32)s1 (single isomer, unassigned; stereoisomer 1) [Compound 26]",–,–,> 10,> 10
"Cc1cccc2c1CCC2(NCc1cccc(C(=O)NCCCCNC[C@H](O)c2ccc(O)c3[nH]c(=O)ccc23)c1)C(=O)O[C@H]1CN2CCC1CC2 (stereo partly drawn) [Compound 5, (R)-quinuclidin-3-yl 1-((3-((4-(((R)-2-hydroxy-2-(8-hydroxy-2-oxo-1,2-dihydroquinolin-5-yl)ethyl)amino)butyl)carbamoyl)benzyl)amino)-4-methyl-2,3-dihydro-1H-indene-1-carboxylate]",–,–,< 1,< 1
"O=C(NC1(C(=O)OCC2CCN(Cc3cccc(O)c3)CC2)CCc2ccccc21)c1cccc(OCCCCCCNC[C@H](O)c2ccc(O)c3[nH]c(=O)ccc23)c1 (stereo partly drawn) [Compound 11, (1-(3-hydroxybenzyl)piperidin-4-yl)methyl 1-(3-((6-(((R)-2-hydroxy-2-(8-hydroxy-2-oxo-1,2-dihydroquinolin-5-yl)ethyl)amino)hexyl)oxy)benzamido)-2,3-dihydro-1H-indene-1-carboxylate]",–,–,1 to 10,> 10
